Assay results as given in ChEMBL document CHEMBL5215006, “Antitumor Activity of Piceamycin by Upregulation of N-Myc Downstream-Regulated Gene 1 in Human Colorectal Cancer Cells” (J Nat Prod, 2022).

Assay: Toxicity in Balb/c mouse xenografted with human HCT-116 cells assessed as body weight change at 10 mg/kg,ip administrated for 18 days by 3 times per week
Type: organism-based
Settings: in vivo, 432 h, time 18 day

Compound: CCc1c2c(nc3ccc(OC(=O)N4CCC(N5CCCCC5)CC4)cc13)-c1cc3c(c(=O)n1C2)COC(=O)[C@]3(O)CC [IRINOTECAN]
- Activity: Toxic
